Data: patent US20230346986A1, “METHODS AND AGENTS FOR THE DETECTION AND TREATMENT OF CANCER” (CASE WESTERN RESERVE UNIVERSITY, priority 2019, published 2023)

Biological target: T1, PSMA (Homo sapiens, UniProt Q04609)
T1 construct: endogenous in cells; host or cells: LNcap cells
Assay: Competition binding assay with 3H-ZJ24 on LNcap cells
Conditions: 3H-ZJ24 12 nmol/L, 1 h at 37° C.
Description: […] used to test the binding affinity of NPs. Specifically, […] cultured in RPMI1640 medium, harvested, washed with 0.5 mM cold Tris buffer, and divided into 1.5 mL Eppendorf tubes at 5×10^5 cells per tube. […] All the tubes were then centrifuged and cells were washed three times with cold PBS. […] The concentration of ligands required to inhibit 50% of binding (IC50) was determined using GraphPad Prism 3.0.

T1 sequence (Q04609 whole entry): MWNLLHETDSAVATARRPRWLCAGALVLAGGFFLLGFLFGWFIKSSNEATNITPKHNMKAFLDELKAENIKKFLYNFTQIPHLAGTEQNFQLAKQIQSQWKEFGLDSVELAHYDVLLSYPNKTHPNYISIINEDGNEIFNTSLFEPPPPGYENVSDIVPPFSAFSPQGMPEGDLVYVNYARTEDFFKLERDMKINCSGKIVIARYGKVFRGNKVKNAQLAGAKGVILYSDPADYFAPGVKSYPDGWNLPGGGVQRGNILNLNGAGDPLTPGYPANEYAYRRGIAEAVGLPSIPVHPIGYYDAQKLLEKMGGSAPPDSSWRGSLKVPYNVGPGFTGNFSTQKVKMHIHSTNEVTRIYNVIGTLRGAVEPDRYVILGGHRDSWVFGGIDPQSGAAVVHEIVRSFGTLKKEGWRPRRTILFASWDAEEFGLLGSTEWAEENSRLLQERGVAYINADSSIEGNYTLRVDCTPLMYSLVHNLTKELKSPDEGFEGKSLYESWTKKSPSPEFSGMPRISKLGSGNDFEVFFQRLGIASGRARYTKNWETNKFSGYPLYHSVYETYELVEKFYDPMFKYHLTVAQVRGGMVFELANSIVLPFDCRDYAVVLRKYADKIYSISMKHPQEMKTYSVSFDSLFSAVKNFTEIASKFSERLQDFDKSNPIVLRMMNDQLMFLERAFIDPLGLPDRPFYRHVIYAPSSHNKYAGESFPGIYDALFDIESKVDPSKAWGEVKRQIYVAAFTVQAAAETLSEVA

CSC[C@H](NC(=O)N[C@@H](CCC(=O)O)C(=O)O)C(=O)O [ZJ24]
IC50: 9.79 nM
